We go through one molecule from patent US9988371B2, “Benzimidazole analogues and related methods” (The Arizona Board of Regents, on Behalf of the University …, priority 2014, dated 2018).

Structures are written as SMILES. Like-named read-outs stand apart in the source and are kept apart here.

Data set [1] in a line: PK study in mice. Format: in vivo. As to conditions: for half-life: mouse, in vivo. As to the method: For PK studies of Pz-1 in animals, a solution formulation for oral administration was created in 500 μL of polysorbate 80, 500 μL of EtOH, and 1.0 mL of pH 2 buffer. For the toxicity studies, a suspension formulation was developed in tween 20 (20%) and xanthan gum (0.125%).
T112 (3-4 hrs) in rats was in line with T1/2 in mice (4.2 hrs).

The subject of data set [2] is parental Ba/F3 cells. Briefly: Proliferation of parental Ba/F3 cells. Format: cell-based, murine. As to conditions: parental Ba/F3, with IL-3. As to the method: FIG. 6: Activity of Pz-1 on NCOA4-RET oncogene-driven IL-3-independent proliferation of murine Ba/F3 cells. […] Ba/F3 and Ba/F3 NCOA4-RET cells were incubated with vehicle (NT) or the indicated concentration of Pz-1 in complete medium and counted at different time points. Data are the mean±SD of one experiment performed in triplicate. Murine interleukin-3 (IL-3) dependent pro-B Ba/F3 cells were from ATCC. Ba/F3 cells stably expressing NCOA4-RET (RET/PTC3) protein were generated by transfecting long isoform (RET-51) of NCOA4-RET by electroporation. Parental and Ba/F3-NCOA4-RET cells were cultured in RPMI 1640 with 10% FBS; parental cells required also 10 ng/ml IL-3. IC50 doses (with Confidence Intervals) are indicated.
Nthy-ory-3-1 and TTcells were seeded in 60-mm dishes. Cells were kept in 2% (Nthy-ori-3-1) or 10% (TT) fetal calf serum. One day after plating, different concentrations of Pz-1 or vehicle were added to the medium and changed every 2-3 days. Cells were counted every 2-3 days. […] Parental and RET/PTC-expressing Ba/F3 were kept in 10% fetal calf serum in 6-multi wells and counted every day for 4 consecutive days, changing media every 2 days. […] IC50 doses were calculated through a curve fitting analysis from the last day of growth curves using the PRISM software program (Graphpad Software Inc). […]

Data set [3] deals with gatekeeper mutant RETV804M (Homo sapiens, UniProt P07949, V804M). Briefly: RET/V804M kinase assay. As to conditions: biochemical assay; exact potency beyond measurable limit. The method, then: Suitable screening assays for RET and VEGFR2 small molecule kinase inhibitors (from a kinase-directed fragment (KDF) library) were established. The RET kinase assay utilizes an EZ Reader Electrophoresis Mobility Chip Instrument (Caliper Life Science). In the assay, 2 nM recombinant RET enzyme (Invitrogen) is pre-incubated with a small molecule inhibitor or control buffer for 30 min to allow the Type-II kinase inhibitor to trap the DFG-out conformation to which the inhibitors bind. This class of inhibitors is indirectly competitive with ATP, and slow binding kinetics (low kd) allow the inhibitors to appear non-competitive and pseudo-irreversible in nature. Because of the non-competitive nature of these inhibitors, a more biologically relevant concentration of ATP substrate (200 μM) was incorporated in this assay. After 30 min of pre-incubation, a substrate mix containing […], 20 mM MgCl2 and 1.5 μM fluorescently labeled RET substrate peptide (Caliper LS, peptide 22; Perkin Elmer, USA) was added. The conversion level of the RET substrate peptide was then determined utilizing the EZ Reader instrument. Similarly, VEGFR2 and RET/V804M kinase assays have also been established using the same peptide substrate.
gatekeeper mutant RETV804M, sequence (P07949 29-1114 V804M): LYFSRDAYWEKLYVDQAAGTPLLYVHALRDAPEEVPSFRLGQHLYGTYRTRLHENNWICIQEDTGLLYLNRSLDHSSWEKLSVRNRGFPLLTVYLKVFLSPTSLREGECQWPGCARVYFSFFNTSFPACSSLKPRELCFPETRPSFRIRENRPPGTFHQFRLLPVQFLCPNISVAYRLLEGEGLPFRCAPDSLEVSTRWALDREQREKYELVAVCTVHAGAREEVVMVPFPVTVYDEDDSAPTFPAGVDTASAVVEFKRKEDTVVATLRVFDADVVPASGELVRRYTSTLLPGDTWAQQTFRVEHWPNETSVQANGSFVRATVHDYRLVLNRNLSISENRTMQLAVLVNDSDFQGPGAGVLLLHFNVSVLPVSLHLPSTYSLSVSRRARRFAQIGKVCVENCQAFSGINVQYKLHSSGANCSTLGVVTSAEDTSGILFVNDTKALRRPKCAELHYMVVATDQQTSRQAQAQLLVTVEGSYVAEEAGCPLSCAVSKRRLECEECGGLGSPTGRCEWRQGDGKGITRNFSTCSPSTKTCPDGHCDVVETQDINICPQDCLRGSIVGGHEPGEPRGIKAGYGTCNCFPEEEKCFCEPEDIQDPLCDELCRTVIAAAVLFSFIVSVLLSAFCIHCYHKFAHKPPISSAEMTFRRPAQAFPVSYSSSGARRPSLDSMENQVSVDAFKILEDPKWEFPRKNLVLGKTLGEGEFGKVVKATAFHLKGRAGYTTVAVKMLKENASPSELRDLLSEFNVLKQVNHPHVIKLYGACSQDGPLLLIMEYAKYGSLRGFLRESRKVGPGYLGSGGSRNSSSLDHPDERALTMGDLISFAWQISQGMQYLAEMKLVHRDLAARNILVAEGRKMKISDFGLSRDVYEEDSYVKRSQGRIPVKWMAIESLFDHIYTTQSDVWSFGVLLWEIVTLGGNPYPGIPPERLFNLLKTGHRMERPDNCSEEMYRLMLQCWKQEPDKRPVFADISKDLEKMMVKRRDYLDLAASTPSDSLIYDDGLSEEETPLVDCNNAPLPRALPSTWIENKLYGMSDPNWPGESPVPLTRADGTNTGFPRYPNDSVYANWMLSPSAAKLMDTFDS

What is called IC50 is the concentration needed to halve the response being measured. Read a low IC50 as greater potency in that assay. Consider `Cn1cc(-c2ccc3c(c2)ncn3-c2ccc(CC(=O)Nc3cc(C(C)(C)C)on3)cc2)cn1` [Pz-1, N-(5-(tert-butyl)isoxazol-3-yl)-2-(4-(5-(1-methyl-1H-pyrazol-4-yl)-1H-benzo[d]imidazol-1-yl)phenyl)acetamide], for which the AUC in data set [1] (2 mg/kg, solution formulation) worked out at 6.5 µg/h/mL. For the same molecule, the half-life is 4.2 h in data set [1] (oral, read-out: T1/2 (converted)) and 3.8 h in data set [1] (po, 2 mg/kg, read-out: elimination half-life (converted)). For the same molecule, the inhibition of proliferation entry in data set [2] is reported as “inhibition of proliferation by Pz-1 for Ba/F3-NCOA4-RET but not parental Ba/F3”. This molecule also showed a half-maximal inhibitory concentration (IC50) in data set [3] of under 1 nM.
